Publication PMC11206245 (Pharmaceuticals, 2024)
≈ marks a conversion by molar mass, not a printed value. Entries after “also recorded” stand apart in the source; their conditions may differ. Read-outs that look alike come from different tables or passages of the source.

Assays:
[1] = test system: healthy dogs; experiment: Study B: histopathology of tissues after treatment; type: in vivo; settings: nine dogs, three IV doses of 150 mg/m^2
Experimental: (§1) Study B involved 9 healthy dogs (8 females and 1 male), including the 4 females from Study A after wash-out and upon confirmation of regular laboratory evaluations. […] Tolerability evaluations were performed via clinical examinations and blood sampling for laboratory evaluation after each treatment. For toxicity assessments, 4, 6, and 8 h after the final administration, the animals were euthanized for tissue collection and histopathological evaluation.
(§2) Hemograms were performed following blood collection.

[2] = Study B: 17-AAG pharmacokinetics in subcutaneous interstitial fluid (tissue cages, HPLC); type: in vivo; settings: dogs; for AUC(0-t) / Cmax / half-life: both sexes, dog, subcutaneous interstitial fluid, iv, mean ± SD; for half-life: read-out: t ½ (converted)
Experimental: as §1
In Study B, samples of interstitial fluid were collected from tissue cages implanted subcutaneously in the dogs. These cages were prepared based on a protocol previously described by Stegemann et al.. They were made from non-toxic, siliconized, flexible, non-irritant PVC tubes with dimensions of 3.5 cm long, an internal diameter of 3 mm, and an external diameter of 5 mm. Three autoclaved cages were surgically implanted between the scapula of each animal under sedation (xylazine 2%, Syntec, Tambore, SP, Brazil) and local anesthesia (lidocaine 2% and epinephrine 0.002%, Syntec). Before and after surgical procedures, antibiotics (enrofloxacin–5 mg/Kg, Syntec) and an anti-inflammatory (ketoprofen 1%–1 mL/Kg, CEVA, Paulínia, SP, Brazil) drug were administered. To allow animals to heal, as well as the formation of the granulation tissue around the cages, a recovery time of 10 days after surgery was considered. The subcutaneous interstitial fluid was collected by percutaneous puncture using a 21 G needle and 20 mL syringe.
(§3) For the mobile phase, acetonitrile (ACN, J.T.Baker®, Philadelphia, PA, USA) and water with 1% acetic acid (J.T.Baker®)were used. Briefly, aliquots of 200 µL of plasma or 100 µL of subcutaneous interstitial liquid were placed in a 1.5 mL microcentrifuge tube. Subsequently, 600 µL and 300 µL of ACN were added to all plasma and subcutaneous interstitial liquid samples, respectively. The mixture was vortexed for 30 s, followed by centrifugation at 3400× g for 10 min. Next, 500 µL of the plasma supernatant and 250 µL of the subcutaneous interstitial fluid were pipetted into a new vial. The method was validated in accordance with the International Council for Harmonization (ICH) technical requirements for the evaluation of medicinal products. […] No matrix interferences were observed. Two calibrated plasma curves of 17-AAG were validated with different injection volumes. […] Data acquisition and processing were performed using LabSolutions software (Version 5.3).
(§4) Cmax, half-life (t ½), distribution volume, and clearance were also determined. Data were analyzed in Excel and WinNonlin using a mono-compartmental model.

[3] = design: method as in PMID 22124669, PMID 20618337; settings: humans; cited from earlier work
[4] = test system: healthy dogs; experiment: Study B: safety and toxicity, side and adverse effects, plasma biochemistry; type: in vivo
Experimental: as §1, §2

[5] = design: method as in earlier work; settings: mice with MCF-7 breast tumors, 40 mg/kg intravenous dose; ref National Institute of Cancer's guide, https://dtp.cancer.gov/timeline/posters/AGG_Geldamycin.pdf; cited from earlier work
[6] = cited from earlier work
[7] = Study A dose-escalation protocol: 17-AAG pharmacokinetics in plasma (HPLC); type: in vivo; settings: dogs; for AUC / Cmax / half-life: female, dog; for AUC: AUC0–8h; for half-life: read-out: t½ (converted)
Experimental: In Studies A and B, an intravenous catheter was placed in the cephalic vein of each animal’s right and left anterior limbs. […] Under both protocols, blood samples were centrifuged at 1500× g at 4 °C for 10 min.
as §3, §4

[8] = Study B, third day, out of nine dogs
[9] = Study A, plasma, single IV dose 50 mg/m^2, mean ± SD
[10] = Study A, plasma, single IV dose 100 mg/m^2, mean ± SD
[11] = Study A, plasma, single IV dose 150 mg/m^2, mean ± SD
[12] = Study A, plasma, single IV dose 200 mg/m^2, mean ± SD
[13] = Study A, plasma, single IV dose 250 mg/m^2, mean ± SD
[14] = 50 mg/m2, Study A, plasma, single IV dose 50 mg/m^2, mean ± SD
[15] = 100 mg/m2, Study A, plasma, single IV dose 100 mg/m^2, mean ± SD
[16] = 150 mg/m2, Study A, plasma, single IV dose 150 mg/m^2, mean ± SD
[17] = 200 mg/m2, Study A, plasma, single IV dose 200 mg/m^2, mean ± SD
[18] = 250 mg/m2, Study A, plasma, single IV dose 250 mg/m^2, mean ± SD

## C=CCNC1=C2C[C@@H](C)C[C@H](OC)[C@H](O)[C@@H](C)/C=C(\C)[C@H](OC(N)=O)[C@@H](OC)/C=C\C=C(/C)C(=O)NC(=CC1=O)C2=O [17-AAG, 17-(allylamino)-17-demethoxygeldanamycin]
[1]
  Histopathological alterations in the lung and heart: no histopathological alterations
[2]; Study B, 150 mg/m^2 IV, at all times evaluated / at 48 h intervals
  Concentration in subcutaneous interstitial fluid (tissue cages): ~100 ng/mL
[2]; 150 mg/m2, AUC 0–8 h, Study B, 1st administration of 150 mg/m^2 IV
  AUC(0-t): 2660 ± 437 ng·h/mL
[2]; 150 mg/m2, AUC 0–8 h, Study B, 2nd administration of 150 mg/m^2 IV
  AUC(0-t): 2910 ± 686 ng·h/mL
[2]; 150 mg/m2, AUC 0–8 h, Study B, 3rd administration of 150 mg/m^2 IV
  AUC(0-t): 2730 ± 1440 ng·h/mL
[2]; 150 mg/m2, Study B, 1st administration of 150 mg/m^2 IV
  Cmax: 704 ± 332 ng/mL
[2]; 150 mg/m2, Study B, 2nd administration of 150 mg/m^2 IV
  Cmax: 736 ± 294 ng/mL
[2]; 150 mg/m2, Study B, 3rd administration of 150 mg/m^2 IV
  Cmax: 726 ± 401 ng/mL
[2]; 150 mg/m2, Study B, 1st administration of 150 mg/m^2 IV, read-out: AUC 0–4 h
  AUC(0-t): 1820 ± 430 ng·h/mL
[2]; 150 mg/m2, Study B, 1st administration of 150 mg/m^2 IV, read-out: AUC 0–6 h
  AUC(0-t): 2300 ± 409 ng·h/mL
[2]; 150 mg/m2, Study B, 1st administration of 150 mg/m^2 IV, read-out: AUC 0–24 h
  AUC(0-t): 4760 ± 333 ng·h/mL
[2]; 150 mg/m2, Study B, 1st administration of 150 mg/m^2 IV, read-out: AUC 0–47.5 h
  AUC(0-t): 7380 ± 1360 ng·h/mL
[2]; 150 mg/m2, Study B, 1st of three IV administrations of 150 mg/m^2 at 48 h intervals
  half-life: 38 ± 16 h
[2]; 150 mg/m2, Study B, 2nd administration of 150 mg/m^2 IV, read-out: AUC 0–4 h
  AUC(0-t): 1940 ± 618 ng·h/mL
[2]; 150 mg/m2, Study B, 2nd administration of 150 mg/m^2 IV, read-out: AUC 0–6 h
  AUC(0-t): 2550 ± 638 ng·h/mL
[2]; 150 mg/m2, Study B, 2nd administration of 150 mg/m^2 IV, read-out: AUC 0–24 h
  AUC(0-t): 4070 ± 700 ng·h/mL
[2]; 150 mg/m2, Study B, 2nd administration of 150 mg/m^2 IV, read-out: AUC 0–47.5 h
  AUC(0-t): 7050 ± 2190 ng·h/mL
[2]; 150 mg/m2, Study B, 2nd of three IV administrations of 150 mg/m^2 at 48 h intervals
  half-life: 28 ± 9 h
[2]; 150 mg/m2, Study B, 3rd administration of 150 mg/m^2 IV, read-out: AUC 0–4 h
  AUC(0-t): 895 ± 408 ng·h/mL
[2]; 150 mg/m2, Study B, 3rd administration of 150 mg/m^2 IV, read-out: AUC 0–6 h
  AUC(0-t): 2040 ± 1100 ng·h/mL
[2]; 150 mg/m2, Study B, 3rd administration of 150 mg/m^2 IV, read-out: AUC 0–24 h
  AUC(0-t): 3500 ± 2420 ng·h/mL
[3]
  half-life: 180 to 360 min
[4]; Study B, by the fourth day
  Animals with elevated transaminase levels persisting: only one animal
[4]; Study B, fourth day
  Animals with bloody diarrhea: one animal
  Animals with pale feces: seven out of nine
[4]; Study B, multiple doses of 150 mg/m^2, three out of nine
  Dogs with elevated levels of ALT and AST: 33%
[4]; Study B, second day after administering the second dose
  Animals with pasty feces: two out of nine
[4]; [8]
  Animals with bloody diarrhea: one
  Animals with diarrhea with liquid feces: three
  Animals with pasty feces: two
[4]; Study B, three IV doses of 150 mg/m^2
  Dogs presenting elevated levels of ALT, AST and GGT: 3/9
[4]; dog, in vivo
  Animals with skin reaction with temporarily erupted hairs: only one animal
[4]; dog, in vivo, iv
  Animals presenting adverse reactions: ALT: 3 (33%) n (%)
  Animals presenting adverse reactions: AST: 3 (33%) n (%)
  Animals presenting adverse reactions: bloody diarrhea: 1 (11%) n (%)
  Animals presenting adverse reactions: diarrhea (liquid feces): 3 (33%) n (%)
  Animals presenting adverse reactions: erythema: 0 n (%)
  Animals presenting adverse reactions: hyperthermia: 0 n (%)
  Animals presenting adverse reactions: nausea: 0 n (%)
  Animals presenting adverse reactions: pasty feces: 9 (100%) n (%)
  Animals presenting adverse reactions: pruritus: 0 n (%)
  Animals presenting adverse reactions: vomit: 0 n (%)
[5]
  maximum plasma half-life: 264 min
[6]; according to PubChem
  Solubility in Dimethyl Sulfoxide (DMSO): 100 mM (≈ 58.6 mg/mL)
  Solubility in ethanol: 10 mM (≈ 5.86 mg/mL)
[6]; aqueous
  Aqueous solubility: approximately 0.01 mg/mL
[7]; Study A, average over doses 50–250 mg/m^2
  Clearance from plasma, on average: 0.026 ± 0.010 L/h/m^2
[7]; Study A, plasma, IV doses 50–250 mg/m^2
  Dose-proportionality of Cmax and AUC: linear correlation between doses ranging from 50 to 200 mg/m^2; also recorded: dose-proportionate between the 50 and 200 mg/m^2 doses
[7]; [9]
  Clearance: 0.04 ± 0.02 L/m^2/h
  DV (distribution volume): 0.03 ± 0.02 L/m^2
[7]; [10]
  Clearance: 0.03 ± 0.01 L/m^2/h
  DV (distribution volume): 0.02 ± 0.01 L/m^2
[7]; [11]
  Clearance: 0.02 ± 0.00 L/m^2/h
  DV (distribution volume): 0.02 ± 0.00 L/m^2
[7]; [12]
  Clearance: 0.02 ± 0.00 L/m^2/h
  DV (distribution volume): 0.02 ± 0.00 L/m^2
[7]; [13]
  Clearance: 0.03 ± 0.01 L/m^2/h
  DV (distribution volume): 0.02 ± 0.00 L/m^2
[7]; abstract, after single IV doses 50–250 mg/m^2
  maximum plasma concentration (Cmax), lower end of range: 1405 ± 686 ng/mL
[7]; [14]
  AUC: 1480 ± 695 ng·h/mL
  half-life: 32.4 ± 1.8 min
[7]; 50 mg/m2, Study A, plasma, single IV dose 50 mg/m^2, mean ± SD, read-out: Cmax
  Cmax: 1410 ± 687 ng/mL
[7]; [15]
  AUC: 4380 ± 1630 ng·h/mL
  half-life: 36.6 ± 4.8 min
[7]; 100 mg/m2, Study A, plasma, single IV dose 100 mg/m^2, mean ± SD, read-out: Cmax
  Cmax: 3760 ± 1420 ng/mL
[7]; [16]
  AUC: 7930 ± 1550 ng·h/mL
  half-life: 35.4 ± 2.4 min
[7]; 150 mg/m2, Study A, plasma, single IV dose 150 mg/m^2, mean ± SD, read-out: Cmax
  Cmax: 6940 ± 1340 ng/mL
[7]; [17]
  AUC: 11900 ng·h/mL
  half-life: 40.2 ± 3 min
[7]; 200 mg/m2, Study A, plasma, single IV dose 200 mg/m^2, mean ± SD, read-out: Cmax
  Cmax: 9440 ± 991 ng/mL
[7]; [18]
  AUC: 9630 ± 2670 ng·h/mL
  half-life: 34.2 ± 12.6 min
[7]; 250 mg/m2, Study A, plasma, single IV dose 250 mg/m^2, mean ± SD, read-out: Cmax
  Cmax: 8610 ± 1060 ng/mL
[7]; plasma, abstract, after single IV doses 50–250 mg/m^2, read-out: maximum plasma concentration (Cmax), upper end of range
  Cmax: 9440 ± 991 ng/mL
